These results are taken from patent US20050245466A1, “Use of topoisomerase inhibitors and heat shock protein 90 inhibitors for use in chemotherapy” (THE UNIVERSITY OF LIVERPOOL, priority 2002, published 2005).

One data set concerns the target HtpG (Escherichia coli, UniProt P0A6Z3). Conditions: in vitro; cited from earlier work.
Data set [1] can be described thus: MTD stated with the xenograft dosing. Conditions: CD1 Nude, mouse, in vivo; mice. The method, then:
Treatment with test agents was initiated when the mean individual tumour volume exceeded 1,000 mm^3. The mice were dosed at day 11 and day 22—([…] 10 mg/kg, VePesid 5 mg/kg, MTD […] 22 mg/kg (a non toxic form of 17AAG which can be tolerated at much higher doses) MTD VePesid 70 mg/kg.

In another data set the test system is E.coli JGT11 (htpG null). The data set is described as follows: Agar sensitivity plates, htpG null mutant. The class given is cell-based. The procedure: (§1) 200 μl of an overnight culture of E.coli strains was spread over the surface of a LB plate. The plates were incubated for three hours at 37° C., and the discs (50 μl of drug) placed onto the plates that were then incubated at 37° C. overnight.
(§2) The plates were photographed the following day with Fluor-S™ Quantity 1 program and the results are illustrated in FIG. 18.
(§3) The inhibition of bacterial cell growth was assessed by examining the zones of inhibition around each disc containing the topo II inhibitor.

For another data set, the system named is E.coli MC4100. Kind of data set: Agar sensitivity plates, parental strain. Format: cell-based. The settings on record: for zone of inhibition: parental strain MC4100. The procedure:
as §1, §2, §3

Chain of HtpG (P0A6Z3 whole entry): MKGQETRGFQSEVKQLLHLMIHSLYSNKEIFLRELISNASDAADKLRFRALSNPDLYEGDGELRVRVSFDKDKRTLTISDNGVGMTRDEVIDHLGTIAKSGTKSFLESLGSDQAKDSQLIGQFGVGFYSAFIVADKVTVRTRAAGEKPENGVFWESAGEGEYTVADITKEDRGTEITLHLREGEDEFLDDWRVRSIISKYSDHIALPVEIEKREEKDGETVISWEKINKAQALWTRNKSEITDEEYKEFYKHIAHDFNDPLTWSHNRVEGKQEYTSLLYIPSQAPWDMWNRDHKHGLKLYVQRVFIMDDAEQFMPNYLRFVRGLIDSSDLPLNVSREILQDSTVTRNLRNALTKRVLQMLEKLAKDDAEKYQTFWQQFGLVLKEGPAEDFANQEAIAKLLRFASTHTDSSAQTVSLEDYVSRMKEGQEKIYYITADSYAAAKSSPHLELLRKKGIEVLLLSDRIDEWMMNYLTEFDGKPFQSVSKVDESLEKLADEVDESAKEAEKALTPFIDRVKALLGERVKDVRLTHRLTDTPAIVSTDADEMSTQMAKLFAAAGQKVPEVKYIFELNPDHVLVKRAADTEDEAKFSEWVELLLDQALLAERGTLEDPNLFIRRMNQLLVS

For `COC1=C2C[C@@H](C)C[C@H](OC)[C@H](O)[C@@H](C)/C=C(\C)[C@H](OC(N)=O)[C@@H](OC)/C=C\C=C(/C)C(=O)NC(=CC1=O)C2=O` [Geldanamycin], on HtpG, the “activity of HtpG” value is “inhibits”. The compound also yielded an MTD in data set [1] of 22 mg/kg.
On to `O=C(O)c1cn(C2CC2)c2cc(N3CCNCC3)c(F)cc2c1=O` [Ciprofloxacin], for which the “effect on growth versus parental strain (FIG. 18)” value in the data set with E.coli JGT11 (htpG null) (JGT11, even at concentrations as low as 0.01 μM) is “significantly greater effect”. Further, the “inhibition of growth (zones of inhibition) versus MC4100” value in the data set on E.coli JGT11 (htpG null) (htpG null mutant, discs in the range of 0.6-0.01 μM) was “increased inhibition”. The “inhibition of growth (zones of inhibition)” value in the data set with E.coli MC4100 (MC4100, discs in the range of 0.6-0.01 μM) is “some inhibition of growth”. Also, the values for the zone of inhibition entry in the data set with E.coli MC4100 (0.025 μM) and in the data set on E.coli MC4100 (0.1 μM) were “no zone of inhibition” and “reduced zone of inhibition”, respectively.
As for `COc1cc([C@@H]2c3cc4c(cc3[C@@H](O[C@@H]3O[C@@H]5CO[C@@H](C)O[C@H]5[C@H](O)[C@H]3O)[C@H]3COC(=O)[C@H]23)OCO4)cc(OC)c1O` [VePesid, Etoposide], the MTD in data set [1] turned out to be 70 mg/kg.
